From ChEMBL document CHEMBL3259546, “Chrotacumines G-J, chromone alkaloids from Dysoxylum acutangulum with osteoclast differentiation inhibitory activity” (Bioorg Med Chem Lett, 2014) come the findings set out here.

Structures are written as SMILES.

One data set deals with Osteoclast. Put plainly: Inhibition of RANKL-induced osteoclast differentiation in ICR mouse bone marrow after 48 hrs by TRAP assay. Format: functional, cell-based.
Data set [1] can be described thus: Cytotoxicity against ICR mouse osteoclasts by MTT assay. Format: cell-based. The following applies: osteoclast. (Formazan colour is commonly taken as a measure of viable cells.)

Usually IC50 stands for the concentration that gives 50% inhibition. On to `COc1cc(/C=C/C(=O)O[C@@H]2CN(C)CC[C@@H]2c2c(O)cc(O)c3c(=O)cc(C)oc23)cc(OC)c1OC`, for which, in the data set with Osteoclast, half-maximal inhibition (IC50) was put at 9.8 µM and the inhibition entry is “Dose-dependent effect”. Besides, the Activity result in data set [1] is “Non-toxic”.
In the case of `COc1cc(C(=O)O[C@@H]2CN(C)CC[C@@H]2c2c(O)cc(O)c3c(=O)cc(C)oc23)ccc1O`, in the data set with Osteoclast, the IC50 came out at 15.1 µM and the inhibition entry was “Dose-dependent effect”. Further, the Activity result in data set [1] was “Non-toxic”.
